In ChEMBL document CHEMBL3045862, “PRE-CLINICAL AND CLINICAL PHARMACOKINETICS OF THE DIASTEREOMERS OF ARTEETHER, A POTENT ANTIMALARIAL” (Med Chem Res, 2004):

How the values were obtained:
Rattus norvegicus [1] = assay: Clearance in Rattus norvegicus Sprague-Dawley (rat) at 2 mg/kg, iv; assay type: ADME, organism-based; parameters: dose 2 mg/kg, route intravenous; conditions: in vivo
[2] = Mean residence time in Macaca mulatta (Rhesus monkey) at 7.5 mg/kg, administered intramuscularly; assay type: ADME, organism-based; parameters: dose 7.5 mg/kg, route intramuscular; conditions: in vivo, im
Rhesus monkey [3] = assay: Volume of distribution in Macaca mulatta (Rhesus monkey) at 50 mg/kg, po; assay type: ADME, organism-based; parameters: dose 50 mg/kg, route oral; conditions: in vivo
Rattus norvegicus [4] = assay: Volume of distribution in Rattus norvegicus Sprague-Dawley (rat) at 30 mg/kg, po; assay type: ADME, organism-based; parameters: dose 30 mg/kg, route oral; conditions: in vivo
Rattus norvegicus [5] = assay: Clearance in Rattus norvegicus Sprague-Dawley (rat) at 30 mg/kg, administered intramuscularly; assay type: ADME, organism-based; parameters: dose 30 mg/kg, route intramuscular; conditions: in vivo, im
Rattus norvegicus [6] = assay: Dose normalized AUC in Rattus norvegicus Sprague-Dawley (rat) at 17.5 mg/kg, administered intramuscularly; assay type: ADME, organism-based; parameters: dose 17.5 mg/kg, route intramuscular; conditions: in vivo, im
[7] = Mean residence time in Macaca mulatta (Rhesus monkey) at 4 mg/kg, iv; assay type: ADME, organism-based; parameters: dose 4 mg/kg, route intravenous; conditions: in vivo
[8] = Cmax in Macaca mulatta (Rhesus monkey) at 50 mg/kg, po; assay type: ADME, organism-based; parameters: dose 50 mg/kg, route oral; conditions: in vivo
[9] = Cmax in Rattus norvegicus Sprague-Dawley (rat) at 30 mg/kg, administered intramuscularly; assay type: ADME, organism-based; parameters: dose 30 mg/kg, route intramuscular; conditions: in vivo, im
[10] = Tmax in Rattus norvegicus Sprague-Dawley (rat) at 9 mg/kg, administered intramuscularly; assay type: ADME, organism-based; parameters: dose 9 mg/kg, route intramuscular; conditions: in vivo, im
Rattus norvegicus [11] = assay: Clearance in Rattus norvegicus Sprague-Dawley (rat) at 9 mg/kg, po; assay type: ADME, organism-based; parameters: dose 9 mg/kg, route oral; conditions: in vivo
[12] = Elimination half life in Rattus norvegicus Sprague-Dawley (rat) at 17.5 mg/kg, po; assay type: ADME, organism-based; parameters: dose 17.5 mg/kg, route oral; conditions: in vivo, read-out: beta t1/2 (converted)
[13] = Elimination half life in Rattus norvegicus Sprague-Dawley (rat) at 30 mg/kg, administered intramuscularly; assay type: ADME, organism-based; parameters: dose 30 mg/kg, route intramuscular; conditions: in vivo, im, read-out: beta t1/2 (converted)
Rattus norvegicus [14] = assay: Dose normalized AUC in Rattus norvegicus Sprague-Dawley (rat) at 9 mg/kg, administered intramuscularly; assay type: ADME, organism-based; parameters: dose 9 mg/kg, route intramuscular; conditions: in vivo, im
Rattus norvegicus [15] = assay: Clearance in Rattus norvegicus Sprague-Dawley (rat) at 30 mg/kg, po; assay type: ADME, organism-based; parameters: dose 30 mg/kg, route oral; conditions: in vivo
[16] = Volume of distribution in Rattus norvegicus Sprague-Dawley (rat) at 2 mg/kg, iv; assay type: ADME, organism-based; parameters: dose 2 mg/kg, route intravenous; conditions: in vivo
Rattus norvegicus [17] = assay: Dose normalized AUC in Rattus norvegicus Sprague-Dawley (rat) at 30 mg/kg, administered intramuscularly; assay type: ADME, organism-based; parameters: dose 30 mg/kg, route intramuscular; conditions: in vivo, im
[18] = Elimination half life in Rattus norvegicus Sprague-Dawley (rat) at 9 mg/kg, po; assay type: ADME, organism-based; parameters: dose 9 mg/kg, route oral; conditions: in vivo, read-out: beta t1/2 (converted)
Rattus norvegicus [19] = assay: AUC (0 to infinity) in Rattus norvegicus Sprague-Dawley (rat) at 17.5 mg/kg, po; assay type: ADME, organism-based, Plasma; parameters: time infinity, dose 17.5 mg/kg, route oral; conditions: in vivo
[20] = Elimination half life in Rattus norvegicus Sprague-Dawley (rat) at 17.5 mg/kg, administered intramuscularly; assay type: ADME, organism-based; parameters: dose 17.5 mg/kg, route intramuscular; conditions: in vivo, im, read-out: beta t1/2 (converted)
Rhesus monkey [21] = assay: Clearance in Macaca mulatta (Rhesus monkey) at 7.5 mg/kg, administered intramuscularly; assay type: ADME, organism-based; parameters: dose 7.5 mg/kg, route intramuscular; conditions: in vivo, im
[22] = Volume of distribution in Macaca mulatta (Rhesus monkey) at 4 mg/kg, iv; assay type: ADME, organism-based; parameters: dose 4 mg/kg, route intravenous; conditions: in vivo
Rattus norvegicus [23] = assay: Volume of distribution in Rattus norvegicus Sprague-Dawley (rat) at 9 mg/kg, administered intramuscularly; assay type: ADME, organism-based; parameters: dose 9 mg/kg, route intramuscular; conditions: in vivo, im
Rhesus monkey [24] = assay: AUC (0 to infinity) in Macaca mulatta (Rhesus monkey) at 7.5 mg/kg, administered intramuscularly; assay type: ADME, organism-based, Plasma; parameters: time infinity, dose 7.5 mg/kg, route intramuscular; conditions: in vivo, im
[25] = Mean residence time in Rattus norvegicus Sprague-Dawley (rat) at 30 mg/kg, administered intramuscularly; assay type: ADME, organism-based; parameters: dose 30 mg/kg, route intramuscular; conditions: in vivo, im
[26] = Elimination half life in Macaca mulatta (Rhesus monkey) at 50 mg/kg, po; assay type: ADME, organism-based; parameters: dose 50 mg/kg, route oral; conditions: in vivo, read-out: beta t1/2 (converted)
[27] = Tmax in Rattus norvegicus Sprague-Dawley (rat) at 9 mg/kg, po; assay type: ADME, organism-based; parameters: dose 9 mg/kg, route oral; conditions: in vivo
[28] = Cmax in Rattus norvegicus Sprague-Dawley (rat) at 30 mg/kg, po; assay type: ADME, organism-based; parameters: dose 30 mg/kg, route oral; conditions: in vivo
Rattus norvegicus [29] = assay: Dose normalized AUC in Rattus norvegicus Sprague-Dawley (rat) at 2 mg/kg, iv; assay type: ADME, organism-based; parameters: dose 2 mg/kg, route intravenous; conditions: in vivo
Rattus norvegicus [30] = assay: Volume of distribution in Rattus norvegicus Sprague-Dawley (rat) at 17.5 mg/kg, po; assay type: ADME, organism-based; parameters: dose 17.5 mg/kg, route oral; conditions: in vivo
Rattus norvegicus [31] = assay: AUC (0 to infinity) in Rattus norvegicus Sprague-Dawley (rat) at 17.5 mg/kg, administered intramuscularly; assay type: ADME, organism-based, Plasma; parameters: dose 17.5 mg/kg, route intramuscular, time infinity; conditions: in vivo, im
[32] = Mean residence time in Rattus norvegicus Sprague-Dawley (rat) at 2 mg/kg, iv; assay type: ADME, organism-based; parameters: dose 2 mg/kg, route intravenous; conditions: in vivo
Rhesus monkey [33] = assay: Dose normalized AUC in Macaca mulatta (Rhesus monkey) at 4 mg/kg, iv; assay type: ADME, organism-based; parameters: dose 4 mg/kg, route intravenous; conditions: in vivo
[34] = Cmax in Rattus norvegicus Sprague-Dawley (rat) at 9 mg/kg, po; assay type: ADME, organism-based; parameters: dose 9 mg/kg, route oral; conditions: in vivo
[35] = Mean residence time in Rattus norvegicus Sprague-Dawley (rat) at 30 mg/kg, po; assay type: ADME, organism-based; parameters: dose 30 mg/kg, route oral; conditions: in vivo
[36] = Tmax in Rattus norvegicus Sprague-Dawley (rat) at 30 mg/kg, administered intramuscularly; assay type: ADME, organism-based; parameters: dose 30 mg/kg, route intramuscular; conditions: in vivo, im
[37] = Elimination half life in Rattus norvegicus Sprague-Dawley (rat) at 9 mg/kg, administered intramuscularly; assay type: ADME, organism-based; parameters: dose 9 mg/kg, route intramuscular; conditions: in vivo, im, read-out: beta t1/2 (converted)
[38] = Elimination half life in Macaca mulatta (Rhesus monkey) at 4 mg/kg, iv; assay type: ADME, organism-based; parameters: dose 4 mg/kg, route intravenous; conditions: in vivo, read-out: beta t1/2 (converted)
[39] = Mean residence time in Rattus norvegicus Sprague-Dawley (rat) at 17.5 mg/kg, po; assay type: ADME, organism-based; parameters: dose 17.5 mg/kg, route oral; conditions: in vivo
[40] = Clearance in Homo sapiens (human) at 150 mg; assay type: ADME, organism-based; conditions: in vivo
Rattus norvegicus [41] = assay: Dose normalized AUC in Rattus norvegicus Sprague-Dawley (rat) at 30 mg/kg, po; assay type: ADME, organism-based; parameters: dose 30 mg/kg, route oral; conditions: in vivo

## CCO[C@@H]1O[C@@H]2O[C@]3(C)CC[C@H]4[C@H](C)CC[C@@H]([C@H]1C)[C@@]24OO3 [ALPHA-ARTEETHER]
Rattus norvegicus [1]
  CL: 75 mL/min/kg
[2]
  MRT: 9.2 h
Rhesus monkey [3]
  Vd: 7148.8 L/kg
Rattus norvegicus [4]
  Vd: 176.5 L/kg
Rattus norvegicus [5]
  CL: 247 mL/min/kg
Rattus norvegicus [6]
  AUC/dose: 237.5 ng·h/mL
[7]
  MRT: 2 h
[8]
  Cmax: 3.9 ng/mL
[9]
  Cmax: 93.3 ng/mL
[10]
  Tmax: 0.5 h
Rattus norvegicus [11]
  CL: 600 mL/min/kg
[12]
  half-life: 1.7 h
[13]
  half-life: 11.9 h
Rattus norvegicus [14]
  AUC/dose: 392 ng·h/mL
Rattus norvegicus [15]
  CL: 1330 mL/min/kg
[16]
  Vd: 3.6 L/kg
Rattus norvegicus [17]
  AUC/dose: 66.8 ng·h/mL
[18]
  half-life: 2.4 h
Rattus norvegicus [19]
  AUC: 50.9 ng·h/mL
[20]
  half-life: 21.7 h
Rhesus monkey [21]
  CL: 61.7 mL/min/kg
[22]
  Vd: 4.1 L/kg
Rattus norvegicus [23]
  Vd: 76.8 L/kg
Rhesus monkey [24]
  AUC: 641.8 ng·h/mL
[25]
  MRT: 14.4 h
[26]
  half-life: 2.7 h
[27]
  Tmax: 5 min
[28]
  Cmax: 103 ng/mL
Rattus norvegicus [29]
  AUC/dose: 219.5 ng·h/mL
Rattus norvegicus [30]
  Vd: 244.3 L/kg
Rattus norvegicus [31]
  AUC: 1247.1 ng·h/mL
[32]
  MRT: 0.6 h
Rhesus monkey [33]
  AUC/dose: 628.7 ng·h/mL
[34]
  Cmax: 33.4 ng/mL
[35]
  MRT: 1.8 h
[36]
  Tmax: 0.167 h
[37]
  half-life: 22 h
[38]
  half-life: 1.8 h
[39]
  MRT: 1.9 h
[40]
  clearance: 10 mL/min/kg
Rattus norvegicus [41]
  AUC/dose: 12.4 ng·h/mL
